Among the data in publication PMC7529893, “Structural basis for substrate recognition and chemical inhibition of oncogenic MAGE ubiquitin ligases” (Nature Communications, 2020) are IC50 values, retold here.

The target in one assay is T1, MAGE-A11:PCF11 interaction (GST-MAGE-A11 MHD and FAM-PCF11_4) (Homo sapiens, UniProt P43364).
T1 construct: GST-MAGE-A11 MHD (human MAGE-A11 MHD amino acid 218-429); made in house; host or cells: E. coli BL21(DE3)
T1 sequence (P43364 218-429): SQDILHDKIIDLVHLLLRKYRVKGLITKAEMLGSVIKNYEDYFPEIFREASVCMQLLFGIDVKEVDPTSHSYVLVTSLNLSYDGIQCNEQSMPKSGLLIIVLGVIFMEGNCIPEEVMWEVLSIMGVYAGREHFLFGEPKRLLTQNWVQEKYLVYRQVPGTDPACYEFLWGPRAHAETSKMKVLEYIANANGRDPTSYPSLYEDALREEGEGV
As to the kind of experiment: TR-FRET dose response test of compounds for disruption of MAGE-A11:PCF11 binding. As to conditions: Dose response TR-FRET screening of nine scaffold groups against MAGE-A11:PCF11; read-out: consensus IC50. The protocol: The TR-FRET assay buffer with a formula of 50 mM Tris pH 7.5, 20 mM MgCl2, 0.1 mg/ml BSA and 1 mM DTT was freshly prepared before each experiment. All TR-FRET assays were performed in black 384-well plates with 20 µl/well assay volume in the TR-FRET assay buffer at room temperature (~25 °C). All peptides or compounds were solubilized in DMSO. To test the competitive activity of peptides or compounds against the interaction between GST-MAGE-A11 MHD and FAM-PCF11_4 peptide, 10 µl/well peptide or compound at specified concentration was dispensed into a black 384-well low volume plate, followed by 5 µl/well FAM-PCF11_4 (800 nM), 5 µl/well Tb-anti-GST (20 nM), and GST-MAGE-A11 MHD (20 nM). The assay components in each well was then mixed by shaking the plate on an IKA MTS 2/4 digital microtiter plate shaker (IKA Works; Wilmington, NC, USA) for 1 min. The plate was further centrifuged in an Eppendorf 5810 centrifuge with an A-4-62 swing-bucket rotor (Eppendorf AG, Hamburg, Germany) at 201 g for 30 s. The plate was then incubated for 90 min with a lid to avoid light exposure to the assay components. After incubation, the fluorescent emission signals at 520 nm and 490 nm channels of individual wells were measured with a PHERAstar FS plate reader (BMG Labtech; Durham, NC, USA) by using a 340 nm excitation filter, 100 µs delay time, and 200 µs integration time. The TR-FRET fluorescence emission ratio (TR-FRET signal) for each well was presented as 10,000 × 520 nm/490 nm, which was used directly for curve fitting, or further converted to %Inhibition based on the respective positive and negative controls. The graphic software GraphPad Prism 4.81 (GraphPad Software; La Jolla, CA, USA) was used to generate curves and derive IC50 values of tested peptides or compounds, if applicable.
TR-FRET screen for identifying MAGE-A11 small molecule inhibitors was performed as follows. The primary one-concentration screening and subsequent 10 or 20-concentration dose-response tests were accomplished with an automated High Throughput Screening system (HighRes Biosolutions, Beverly, MA)[30]. In the primary screening, 15 µl/well FAM-PCF11_4 (267 nM) was first dispensed with a Multidrop Combi Reagent Dispenser (Thermo Fisher Scientific, Waltham, MA) to black 384-well low-volume assay plates. The plates were spun down with a Velocity11 VSpin microplate centrifuge (Agilent Technologies, Santa Clara, CA). In total, 30 nl/well of 10 mM compound/DMSO solutions, or DMSO alone, were transferred from compound plates (the St. Jude FDA drug and bioactive library, Drug-like library and Lead-like library) or a control plate to the assay plates with a Pin Tool (V&P Scientific, San Diego, CA). The compounds were arrayed in columns 3–12 and columns 15–24 of compound plates. The controls were arrayed in columns 1, 2, 13, and 14 of a compound plate. In all, 5 µl/well Tb-anti-GST (20 nM) and GST-MAGE-A11 (20 nM) or 5 µl/well Tb-anti-GST (20 nM) alone was then dispensed to selected wells with a Multidrop Combi Reagent Dispenser. The final assay volume was 20 µl/well. The final DMSO concentration was 0.25% (v/v) (0.1% (v/v) from the FAM-PCF11_4 DMSO stock solution and 0.15% (v/v) from the compound-DMSO solution or the DMSO for the control wells). The final tested compound concentration was 15 µM. The final FAM-PCF11_4 concentration was 200 nM and the final Tb-anti-GST concentration was 5 nM. The final GST-MAGE-A11 concentration was 5 nM except for those selected positive control wells in which GST-MAGE-A11 was not presented. The plates were then shaken with a big bear shaker (Big Bear Automation, Santa Clara, California) and spun down with the Velocity11 VSpin microplate centrifuge for 20 s. The plates were then incubated at room temperature in a Liconic incubator (Liconic US, Woburn, MA) for 90 min. The TR-FRET signals for individual wells were measured with a PHERAstar FS plate reader. The %Inhibition of each tested inhibitor was calculated by using Eq. 1.
A general note: In TR-FRET formats the signal depends on donor and acceptor labels being close together.
Usually IC50 stands for the concentration needed to halve the response being measured. For the compound `COc1ccc(F)cc1CNCCCNc1ccnc2cc(CC3CCCCC3)ccc12` [SJ000311253-1], the half-inhibitory concentration (IC50) worked out at 26.3 µM. The same measure, in the same setting: then `COc1cccc(CNCCCNc2ccnc3cc(CCc4ccccc4)ccc23)c1O` [SJ000311255-1], with 26.5 µM; and `COc1ccc(F)cc1CNCCCNc1ccnc2cc(CCc3ccccc3)ccc12` [SJ000311256-1], with 37.1 µM. On the same count and under the same terms, then `c1ccc(CCc2ccc3c(NCCCNCc4cccc5c4OCO5)ccnc3c2)cc1` [SJ000311257-1], with 62.3 µM.

`COc1cccc(CNCCCNc2ccnc3cc(CC(C)C)ccc23)c1O` [SJ000311259-1]: the half-maximal inhibitory concentration (IC50) turned out to be 68.5 µM. For `COc1cccc(CNCCCNc2ccnc3cc(C4CCCCC4)ccc23)c1O` [SJ000311263-1], the IC50 is 32.4 µM. Turning to `c1cc(CNCCCNc2ccnc3cc(C4CCCCC4)ccc23)c2c(c1)OCO2` [SJ000311264-1], the IC50 is 23.7 µM. Turning to `COc1ccc(F)cc1CNCCCNc1ccnc2cc(C3CCCCC3)ccc12` [SJ000311265-1], the half-maximal inhibitory concentration (IC50) was 24.2 µM. For `CCC(CC)c1ccc2c(NCCCNCc3cccc(OC)c3O)ccnc2c1` [SJ000311267-1], the 50% inhibitory concentration (IC50) was determined as 9.95 µM.

With `CCC(CC)c1ccc2c(NCCCNCc3cccc4c3OCO4)ccnc2c1` [SJ000311268-1], the IC50 was 28.9 µM. On the same count and under the same terms, then `CCC(CC)c1ccc2c(NCCCNCc3cc(F)ccc3OC)ccnc2c1` [SJ000311269-1], with 43 µM; and `FC(F)(F)c1cc(-c2ccc3c(NCCCNCc4cccc5c4OCO5)ccnc3c2)cc(C(F)(F)F)c1` [SJ000311272-1], with 9.02 µM. Same read-out and setting: then `COc1ccc(F)cc1CNCCCNc1ccnc2cc(-c3cc(C(F)(F)F)cc(C(F)(F)F)c3)ccc12` [SJ000311273-1], with 7.69 µM; and `COc1cccc(CNCCCNc2ccnc3cc(-c4cccc5ccccc45)ccc23)c1O` [SJ000311275-1], with 16 µM; and `c1cc(CNCCCNc2ccnc3cc(-c4cccc5ccccc45)ccc23)c2c(c1)OCO2` [SJ000311276-1], with 31.2 µM. On the same count and under the same terms, next, `COc1ccc(F)cc1CNCCCNc1ccnc2cc(-c3cccc4ccccc34)ccc12` [SJ000311277-1]: 10.3 µM; `COc1cccc(CNCCCNc2ccnc3cc(-c4ccc(C(F)(F)F)cc4)ccc23)c1O` [SJ000311279-1]: 9.52 µM; `FC(F)(F)c1ccc(-c2ccc3c(NCCCNCc4cccc5c4OCO5)ccnc3c2)cc1` [SJ000311280-1]: 15.7 µM. Turning to `COc1ccc(F)cc1CNCCCNc1ccnc2cc(-c3ccc(C(F)(F)F)cc3)ccc12` [SJ000311281-1], the IC50 is 13.4 µM. Still for that read-out and setting: then `COc1cccc(CNCCCNc2ccnc3cc(-c4ccccc4)ccc23)c1O` [SJ000311283-1], with 24.1 µM; and `c1ccc(-c2ccc3c(NCCCNCc4cccc5c4OCO5)ccnc3c2)cc1` [SJ000311284-1], with 22.2 µM. `COc1ccc(F)cc1CNCCCNc1ccnc2cc(-c3ccccc3)ccc12` [SJ000311285-1]: the IC50 was determined as 28.2 µM.

`COc1cccc(CNCCCNc2ccnc3cc(-c4ccc(C(C)(C)C)cc4)ccc23)c1O` [SJ000311287-1]: the concentration for half-maximal inhibition (IC50) was determined as 4.67 µM.

Still in this assay, the particulars now being: Supplementary Data 3, 59 quinoline compounds; read-out: TR-FRET IC50.
Turning to `c1coc(CNCCCNc2ccnc3cc(C4CCCCC4)ccc23)c1` [SJ000311262-1, C(CNCc1occc1)CNc2ccnc3cc(ccc23)C4CCCCC4], the IC50 was above 70 µM.

For the compound `c1coc(CNCCCNc2ccnc3cc(-c4cccc5ccccc45)ccc23)c1` [SJ000311274-1, C(CNCc1occc1)CNc2ccnc3cc(ccc23)c4cccc5ccccc45], the IC50 was above 70 µM. Consider `FC(F)(F)c1ccc(-c2ccc3c(NCCCNCc4ccco4)ccnc3c2)cc1` [SJ000311278-1, FC(F)(F)c1ccc(cc1)c2ccc3c(NCCCNCc4occc4)ccnc3c2], for which the IC50 worked out at 22.7 µM.

The assay is the same for the next values; noted with them: Supplementary Data 4; read-out: TR-FRET, IC50.
In the case of `FC(F)(F)c1ccc(-c2ccc3c(NCCCNCc4cccc5c4OCO5)ccnc3c2)cc1` [SJ000311280-01], the IC50 amounted to 4.07 µM. Same read-out and setting: then `COc1ccc(F)cc1CNCCCNc1ccnc2cc(-c3ccc(C(F)(F)F)cc3)ccc12` [SJ000311281-01], with 5.58 µM; and `c1ccc(-c2ccc3c(NCCCNCc4cccc5c4OCO5)ccnc3c2)cc1` [SJ000311284-01], with 20.6 µM.
